In test [1] the test system is U46619-induced platelet aggregation. Nature of the test: Antiplatelet aggregation activity (U46619-induced, turbidity, Lumi-aggregometer). It is filed as cell-based. Conditions: 20 μM, rabbit platelets, n=8. As for the experimental part: 4. […] After centrifuging at […] for 10 mins, the supernatant is platelet-rich plasma (PRP). The platelet suspension is obtained from EDTA-anticoagulated PRP, and the platelet granules are finally suspended in the Tyrode's solution. […] The turbidity is measured at 37° C. by Lumi-aggregometer connected with two dual channel recorders as the aggregation.

For another test, the system named is TGF-β. The test is described as follows: Bleomycin-induced lung fibrosis in mice, TGF-β expression by EIA. The class given is in vivo. Conditions: 2.5 mg/kg orally, bleomycin 60 mg/kg. As for the experimental part:
6. KMUP-1 salts inhibit the lung fibrosis in mice induced by bleomycin (BM) mediated via transforming growth factor beta (TGF-β) expression in lung The increased amount of the synthetic collagen and the generation of the macrophage in alveolus may facilitate the formulation of TGF-β, and the expression of TGF-β is looked as a biomarker of the lung fibrosis. […] The state of the TGF-β expression in the irrigation solution is measured by the enzyme immunoassay (EIA).

In another test the test system is L1210 leukemia cell line. The test is described as follows: Cytotoxicity to cancer cells, MTT assay. It is filed as cell-based. Conditions: 3 days, n=6.
For test [2], the system named is STZ-induced diabetic rats. Nature of the test: Change of insulin and fasting blood glucose after administration, STZ-induced diabetic rats. It is filed as in vivo. On the procedure:
Nateglinide, repaglinide or the placebo is administered on day 1 before one hour of the breakfast, and the KMUP-1/KMUP-1-Nateglinide or KMUP-1-Repaglinide are orally administered at 1, 2, 3, 4, 5 and 6 hrs respectively. The amount of the serum glucose (mg/dl), the amount of the serum insulin (mg/dl), the body weight (g) and the change of the body weight are measured.

The test system of a further test is RAW 264.7 cells. The test is described as follows: Inhibition of RANKL-induced osteoclast differentiation (TRAP staining). It is filed as cell-based. The settings on record: 5 μM, RANKL 10 μg/ml, 5 days, n=5.
Test [3] relates to testosterone-induced mice. The test is described as follows: Prostate hypertrophy (BPH) in testosterone-induced mice. It is filed as in vivo. The settings on record: 2.5 mg/kg, testosterone 3 mg/kg/day for 4 weeks, day 28, n=6.
Procedure: The testosterone (TS, 3 mg/kg/day) is administered for 4 weeks for inducing BPH in mice, which combines with KMUP-1 HCl salt (2.5 mg/kg), KMUP-1-Citric acid (2.5 mg/kg) and KMUP-1-Nicotinic acid (2.5 mg/kg), and the ratio of hypertrophy (g)/body weight (g) is measured at day 28 (n=6).
Test [4] relates to C57BL/6J mice. Nature of the test: The amount of the serum glucose and insulin in C57BL/6J mice (high-fat diet). The class given is in vivo. Conditions: 1 mg/kg orally, HFD, after 21 days. On the procedure: (§1) 8-week C57BL/6J mice are divided into standard diet (STD) group and the high-fat diet (HFD) group. In the HFD group, the KMUP-1 HCl salt (1, 2.5 and 5 mg/kg), the simvastatin (5 mg/kg), the KMUP-1-Nicotinic acid complex (1 and 5 mg/kg), the KMUP-1-Simvastatinic acid complex (1 and 5 mg/kg), KMUP-1-Gemfibrozil complex (2.5 mg/kg), KMUP-1-Fibric acid complex (2.5 mg/kg), KMUP-1-γ-polyglutamic acid complex (2.5 mg/kg) and KMUP-1-Citric acid complex (2.5 mg/kg) are administered orally. After 21 days, the amounts (mg/dl) of the triglyceride (TG), the total cholesterol (tot.-C), the high density lipoprotein cholesterol (HDL-C), the low density lipoprotein cholesterol (LDL-C) and the serum glucose of six mice for each group are measured as shown in Tables 2 and 3.

Another test has as its system H1N1 virus. The class given is cell-based. The settings on record: MDCK culture infected with H1N1 virus.
The subject of test [5] is STZ-induced diabetic rats. The test is described as follows: Serum glucose and body weight in streptozosin (STZ)-induced diabetic rats. The settings on record: after 21 days. The class given is in vivo. As for the experimental part: 2. The effect of KMUP-1 on decreasing the amount of the serum glucose in streptozosin (STZ)-induced diabetic rats
60 mg/kg of streptozosin is injected intravenously for inducing the STZ-induced rats, and the KMUP-1 HCl salt (0.5, 1.5, 2.5 and 5 mg/kg) and KMUP-1-Simvastatinic acid (5 mg/kg) are administered orally. After 21 days, the amount of the serum glucose (mg/dl), the amount of the serum insulin (mg/dl), the body weight (g) and the change of the body weight are measured.

Test [6] concerns monocrotaline (MCT)-treated rats. Nature of the test: Pulmonary artery blood pressure in monocrotaline (MCT)-treated rats. It is filed as in vivo, male Wistar rats. The settings on record: 2.5 mg/kg/day p.o. As for the experimental part:
5. the monocrotaline (MCT)-treated rats show the […] pulmonary aterial hypertension
Pulmonary aterial hypertension in MCT-treated rats is caused on day 21 after the intraperitoneal injection. Orally administered KMUP-1 HCl salt (2.5 mg/kg), simvastatin (2.5 mg/kg), KMUP-1-nicotinic acid complex (2.5 mg/kg), KMUP-1-Citric acid complex (2.5 mg/kg), KMUP-1-Simvastatinic acid complex (2.5 mg/kg) and KMUP-1-γ-Polyglutamic acid complex (2.5 mg/kg), or the inhalated KMUP-1-PGI2 (0.1 mM) every day may inhibit the male Wistar rats treated with MCT, which show the effect of decreasing the pulmonary artery blood pressure (PABP).

In test [7] the test system is C57BL/6J mice. Nature of the test: The lipid-lowering effect in C57BL/6J mice (high-fat diet). The class given is in vivo. Conditions: HFD, after 21 days. On the procedure: as §1

Procedure for L1210 leukemia cell line: The methotrexate (MTX) is served as the positive control group. Briefly, the cancer cells (5000-10000 cells/ml) is added together with the compounds to be tested into each well of 96-well plate. After culturing for 3 days, the attached cells are cultured in MTT (0.5 mg/ml) for one hour, followed by dissolving the formazan crystal with dimethyl sulfoxide (DMSO). The absorption at 550 nm wave length is measured by the enzyme linked immunosorbent assay (ELISA) reader. IC50 is the concentration of the tested compound for inhibiting 50% cell growth under the experimental conditions.

On to `COc1ccc2c(c1)c(CC(=O)O)c(C)n2C(=O)c1ccc(Cl)cc1` [Indomethacin, indomethacin, reference compound], for which the “The ratio of the antiplatelet aggregation” value (from here on “The ratio”) in [1] is listed as 87 ± 8.3 %.
The IC50 is the concentration that gives 50% inhibition. High values mean lower potency, low ones higher potency. As for `Cl.Cn1c(=O)c2c(ncn2CCN2CCN(c3ccccc3Cl)CC2)n(C)c1=O` [KMUP-1 HCl salt, 7-[2-[4-(2-chlorobenzene)piperazinyl]ethyl]-1,3-dimethyl xanthine HCl], in the test on TGF-β, the “Changing % of the lung TGF-β” value came to 52 ± 5.2 %. Also, the results for the IC50 with L1210 leukemia cell line and with H1N1 virus (n=6) were 26 nM and 5.2 µg/mL, respectively. For the same compound, the “The change of the fasting blood glucose after administration” value worked out at 3.7 ± 0.6 mg/dL in test [2] (1 mg/kg, 1 hr); 2.3 ± 0.7 mg/dL in [2] (1 mg/kg, 2 hr); 0.1 ± 0.5 mg/dL in test [2] (1 mg/kg, 6 hr); 4.3 ± 0.4 mg/dL in test [2] (2 mg/kg, 1 hr); 2.5 ± 0.2 mg/dL in test [2] (2 mg/kg, 2 hr); 0.3 ± 0.7 mg/dL in [2] (2 mg/kg, 6 hr). Moreover, the “The change of the fasting blood glucose after administration” value in test [2] (3 mg/kg, 1 hr) is 5.2 ± 0.9 mg/dL; in test [2] (3 mg/kg, 2 hr), 1.7 ± 0.1 mg/dL; in [2] (3 mg/kg, 6 hr), -0.1 ± 0.3 mg/dL; in test [2] (4 mg/kg, 1 hr), 5.7 ± 0.8 mg/dL; in test [2] (4 mg/kg, 2 hr), 1.5 ± 0.2 mg/dL; in [2] (4 mg/kg, 6 hr), -0.3 ± 0.1 mg/dL. For the same compound, the “The change of the insulin after administration” value (from here on “The change of the insulin”) in test [2] (1 mg/kg, 1 hr) stood at 10.1 ± 1.8 U/mL; in [2] (1 mg/kg, 2 hr), 16.4 ± 2.2 U/mL; in test [2] (1 mg/kg, 3 hr), 12.6 ± 2.4 U/mL; in test [2] (1 mg/kg, 4 hr), 6.7 ± 2.4 U/mL; in test [2] (1 mg/kg, 6 hr) it was 1.8 ± 0.7 U/mL; in test [2] (2 mg/kg, 1 hr), 26.4 ± 1.3 U/mL. The “The change of the insulin” value turned out to be 30.6 ± 4.6 U/mL in [2] (2 mg/kg, 2 hr); 13.8 ± 3.6 U/mL in [2] (2 mg/kg, 3 hr); 9.5 ± 1.7 U/mL in test [2] (2 mg/kg, 4 hr); 4.6 ± 0.8 U/mL in test [2] (2 mg/kg, 6 hr); 38.2 ± 3.8 U/mL in [2] (3 mg/kg, 1 hr); 32.6 ± 6.4 U/mL in test [2] (3 mg/kg, 2 hr). Also, the “The change of the insulin” value in test [2] (3 mg/kg, 3 hr) came out at 21.4 ± 2.6 U/mL; in test [2] (3 mg/kg, 4 hr) it was 18.4 ± 2.4 U/mL; in test [2] (3 mg/kg, 6 hr), 7.4 ± 3.6 U/mL; in test [2] (4 mg/kg, 1 hr), 37.4 ± 3.6 U/mL; in [2] (4 mg/kg, 2 hr), 47.3 ± 2.3 U/mL; in test [2] (4 mg/kg, 3 hr) it was 27.8 ± 2.8 U/mL. Moreover, the “The change of the insulin” value came to 14.8 ± 3.7 U/mL in [2] (4 mg/kg, 4 hr) and 2.8 ± 0.5 U/mL in test [2] (4 mg/kg, 6 hr). Also, the “TRAP-Positive Cells” value in the test on RAW 264.7 cells is listed as 80 ± 6. The “hypertrophy (g)/body weight (g)” value in test [3] was determined as 0.21 ± 0.04. Besides, the “The amount of serum glucose” value with C57BL/6J mice [4] stood at 120.4 ± 4.2 mg/dL. Further, the “growth of the virus (in words)” value in the test on H1N1 virus (in glucose solution) is “can inhibit the growth of the virus”. Further, the “The amount of the serum glucose” value stood at 215.4 ± 19.6 mg/dL in [5] (0.5 mg/kg orally), 215.4 ± 23.8 mg/dL in [5] (1.5 mg/kg orally), 210.4 ± 15.7 mg/dL in test [5] (2.5 mg/kg orally) and 200.2 ± 14.2 mg/dL in [5] (5 mg/kg orally). The compound also came in with a PABP in test [6] of 13 ± 1.7 mmHg. Also, in test [1], the “The ratio” value amounted to 89 ± 3.4 %. Moreover, the HDL-C was determined as 103.55 ± 4.2 mg/dL in the test with C57BL/6J mice [7] (2.5 mg/kg orally) and 118.32 ± 5.7 mg/dL with C57BL/6J mice [7] (5 mg/kg orally). Also, the figures for the LDL-C in the test on C57BL/6J mice [7] (2.5 mg/kg orally) and with C57BL/6J mice [7] (5 mg/kg orally) were 14.17 ± 1.4 mg/dL and 14.2 ± 2.2 mg/dL, respectively. The values for the TG in the test with C57BL/6J mice [7] (2.5 mg/kg orally) and with C57BL/6J mice [7] (5 mg/kg orally) were 74.5 ± 5.1 mg/dL and 72.67 ± 4.7 mg/dL, respectively. The tot.-C with C57BL/6J mice [7] (2.5 mg/kg orally) was found to be 133 ± 5.1 mg/dL; in the test on C57BL/6J mice [7] (5 mg/kg orally) it was 125.5 ± 9.8 mg/dL.
In the case of `Cn1c(=O)c2c(ncn2CCN2CCN(c3ccccc3Cl)CC2)n(C)c1=O.O=C(O)c1cccnc1` [KMUP-1-Nicotinic acid, KMUP-1-Nicotinic acid salt], in the test on TGF-β, the “Changing % of the lung TGF-β” value was found to be 42 ± 3.8 %. Further, the “hypertrophy (g)/body weight (g)” value in test [3] is on record as 0.19 ± 0.07. Besides, in the test on C57BL/6J mice [4], the “The amount of serum glucose” value stood at 123.5 ± 2.5 mg/dL. In test [6], the PABP was 12 ± 2.6 mmHg. In the test on C57BL/6J mice [7] (5 mg/kg orally), this compound showed an HDL-C of 97.98 ± 3.4 mg/dL, an LDL-C of 13.8 ± 1.2 mg/dL, a TG of 80.75 ± 7.9 mg/dL and a tot.-C of 130 ± 4.1 mg/dL.
Take `Cn1c(=O)c2c(ncn2CCN2CCN(c3ccccc3Cl)CC2)n(C)c1=O.O=C(O)CC(O)(CC(=O)O)C(=O)O` [KMUP-1-Citric acid, KMUP-1-Citric acid salt]: the “hypertrophy (g)/body weight (g)” value in test [3] is recorded as 0.23 ± 0.05. The same compound displayed a PABP in [6] of 16 ± 1.8 mmHg. The “The ratio” value in [1] worked out at 78 ± 2.7 %. Also, in the test with C57BL/6J mice [7] (2.5 mg/kg orally), the HDL-C is 108.4 ± 1.3 mg/dL, the LDL-C was determined as 16.4 ± 1.7 mg/dL, the TG came out at 83.2 ± 5.3 mg/dL and the tot.-C was found to be 129.7 ± 1.6 mg/dL.
With `CN(Cc1cnc2nc(N)nc(N)c2n1)c1ccc(C(=O)N[C@@H](CCC(=O)O)C(=O)O)cc1.Cn1c(=O)c2c(ncn2CCN2CCN(c3ccccc3Cl)CC2)n(C)c1=O` [KMUP-1-MTX, KMUP-1-Methotrexate (MTX) Complex], in the test on L1210 leukemia cell line, the IC50 is 20 nM.
As for `CN(Cc1cnc2nc(N)nc(N)c2n1)c1ccc(C(=O)N[C@@H](CCC(=O)O)C(=O)O)cc1` [MTX, methotrexate, reference compound], the half-maximal inhibitory concentration (IC50) in the test with L1210 leukemia cell line (Mus musculus, 72 h) was 12 nM.

The values above are taken from patent US8470805B2, “Processes for preparing piperazinium salts of KMUP and use thereof” (Kaohsiung Medical University, priority 2009, dated 2013).
